# Data from US20170007615A1, “Antibacterial Compounds” (priority 2014, published 2017).
# Like-named read-outs stand apart in the source and are kept apart here.
# Assays:
# [1] = tested on: E. cloaceae drug resistant clinical isolates; experiment: Antibacterial activity (MIC) against drug resistant clinical isolates, alone and with PMBN; type: cell-based; settings: for MIC: read-out: MIC Compound alone
# [2] = tested on: P. aeruginosa (MMX 1497) colistin-resistant strain; experiment: Antibacterial activity (MIC) against colistin-resistant strains, alone and with colistin; type: cell-based
# [3] = tested on: E. coli drug resistant clinical isolates; experiment: Antibacterial activity (MIC) against drug resistant clinical isolates, alone and with PMBN; type: cell-based; settings: for MIC: Escherichia coli, read-out: MIC Compound alone
# E. cloaceae (ATCC 13047) [4] = experiment: microbe, parasite or virus in culture; settings: Enterobacter cloacae, ATCC13047, read-out: MIC Compound alone
# E. coli (ATCC 25922) [5] = experiment: microbe, parasite or virus in culture; settings: Escherichia coli
# [6] = tested on: A. baumannii (ATCC 19606); experiment: microbe, parasite or virus in culture; settings: Acinetobacter baumannii, ATCC19606, read-out: MIC Compound alone
# [7] = tested on: K. pneumonia colistin-resistant strains; experiment: microbe, parasite or virus in culture; type: cell-based; settings: for MIC: Klebsiella pneumoniae
# [8] = tested on: P. aeruginosa (ATCC 27853); settings: Table 5
# [9] = tested on: A. baumannii (ATCC 19606); settings: Table 4
# E. coli (ATCC 25922) [10] = tested on: E. coli (ATCC 25922)
# B. cepacia (ATCC 25416) = experiment: Antibacterial activity (MIC), alone and with colistin; type: cell-based, Burkholderia cepacia
# [11] = tested on: A. baumannii colistin-resistant strains; experiment: microbe, parasite or virus in culture; type: cell-based; settings: for MIC: Acinetobacter baumannii
# [12] = tested on: P. aeruginosa (ATCC 27853); experiment: microbe, parasite or virus in culture; settings: Pseudomonas aeruginosa, ATCC27853, read-out: MIC Compound alone
# [13] = tested on: P. aeruginosa drug resistant clinical isolates; experiment: Antibacterial activity (MIC) against drug resistant clinical isolates, alone and with PMBN; type: cell-based; settings: for MIC: Pseudomonas aeruginosa, read-out: MIC Compound alone
# [14] = tested on: A. baumannii drug resistant clinical isolates; experiment: as above; type: cell-based; settings: for MIC: Acinetobacter baumannii, read-out: MIC Compound alone
# [15] = tested on: F. philomiragia (ATCC 25015); settings: Table 9
# [16] = tested on: F. philomiragia (ATCC 25015); experiment: microbe, parasite or virus in culture; settings: Francisella philomiragia, ATCC25015, read-out: MIC Compound alone
# [17] = tested on: E. coli colistin-resistant strains; experiment: microbe, parasite or virus in culture; type: cell-based; settings: for MIC: Escherichia coli
# E. cloaceae (ATCC 13047) [18] = tested on: E. cloaceae (ATCC 13047)
smiles,measurement,setting,value
"CCNC(=O)Nc1nc2cc(-c3cnc([C@H](C)O)nc3)cc(-c3ccccn3)c2s1 [Example 23 (WO2013/138860), 1-ethyl-3-[5-[2-[(1S)-1-hydroxyethyl]pyrimidin-5-yl]-7-(2-pyridyl)-1,3-benzothiazol-2-yl]urea]",MIC of Compound (μg/ml) in the presence of PMBN (128 μg/ml),[1]; E. cloaceae (MMX 6087),2 µg/mL
same,MIC,[1]; E. cloaceae (MMX 6087),> 64 µg/mL
same,MIC of Compound (μg/ml) in the presence of PMBN (128 μg/ml),[1]; E. cloaceae (MMX 6093),0.5 µg/mL
same,MIC,[1]; E. cloaceae (MMX 6093),> 16 µg/mL
same,MIC of Compound (μg/ml) in the presence of PMBN (128 μg/ml),[1]; E. cloaceae (MMX 6095),8 µg/mL
same,MIC,[1]; E. cloaceae (MMX 6095),> 64 µg/mL
same,MIC of Compound (μg/ml) in the presence of PMBN (128 μg/ml),[1]; E. cloaceae (MMX 6304),1 µg/mL
same,MIC,[1]; E. cloaceae (MMX 6304),> 16 µg/mL
same,MIC of Compound (μg/ml) in the presence of colistin (2 μg/ml),[2],4 µg/mL
same,MIC,"[2]; Pseudomonas aeruginosa, read-out: MIC Compound alone",> 64 µg/mL
same,MIC of Compound (μg/ml) in the presence of PMBN (128 μg/ml),[3]; E. coli (MMX 1312),≦0.008 μg/ml
same,MIC of Compound (μg/ml) in the presence of PMBN (128 μg/ml),[3]; E. coli (MMX 2232),≦0.008 μg/ml
same,MIC,[3]; E. coli (MMX 1312),> 64 µg/mL
same,MIC,[3]; E. coli (MMX 2232),> 64 µg/mL
same,MIC,E. cloaceae (ATCC 13047) [4],> 64 µg/mL
same,MIC,"E. coli (ATCC 25922) [5]; ATCC25922, read-out: MIC Compound alone, Table 1",4 µg/mL
same,MIC,"E. coli (ATCC 25922) [5]; ATCC25922, read-out: MIC Compound alone, Table 2",4 µg/mL
same,MIC,"E. coli (ATCC 25922) [5]; ATCC25922, read-out: MIC Compound alone, Table 3",4 µg/mL
same,MIC,"E. coli (ATCC 25922) [5]; ATCC25922, read-out: MIC Compound alone, Table 12",> 2 µg/mL
same,MIC,[6],4 µg/mL
same,MIC of Compound (μg/ml) in the presence of colistin (2 μg/ml),[7]; K. pneumonia colistin-resistant strain #1,0.25 µg/mL
same,MIC of Compound (μg/ml) in the presence of colistin (2 μg/ml),[7]; K. pneumonia colistin-resistant strain #2,0.25 µg/mL
same,MIC of Compound (μg/ml) in the presence of colistin (2 μg/ml),[7]; K. pneumonia colistin-resistant strain #3,0.12 µg/mL
same,MIC,"[7]; read-out: MIC Compound alone, K. pneumonia colistin-resistant strain #1",1 µg/mL
same,MIC,"[7]; read-out: MIC Compound alone, K. pneumonia colistin-resistant strain #2",1 µg/mL
same,MIC,"[7]; read-out: MIC Compound alone, K. pneumonia colistin-resistant strain #3",2 µg/mL
same,MIC of Compound (μg/ml) in the presence of PMBN (128 μg/ml),[8],<=0.008 μg/ml
same,MIC of Compound (μg/ml) in the presence of PMBN (128 μg/ml),[9],0.25 µg/mL
same,MIC of Compound (μg/ml) in the presence of PMBN (128 μg/ml),"E. coli (ATCC 25922) [10]; Table 1, (b) No effect",0.06 µg/mL
same,MIC of Compound (μg/ml) in the presence of Colistin (1 μg/ml),"E. coli (ATCC 25922) [10]; Table 2, colistin sub-inhibitory",1 µg/mL
same,MIC of Compound (μg/ml) in the presence of PMB (0.5 μg/ml),"E. coli (ATCC 25922) [10]; Table 3, PMB sub-inhibitory",1 µg/mL
same,MIC of Compound (μg/ml) in the presence of PMBN (32 μg/ml),"E. coli (ATCC 25922) [10]; Table 12, (b) No significant effect",0.12 µg/mL
same,MIC,"B. cepacia (ATCC 25416); Burkholderia cepacia, ATCC25416, read-out: MIC Compound alone",> 64 µg/mL
same,MIC of Compound (μg/ml) in the presence of colistin (2 μg/ml),"B. cepacia (ATCC 25416); Table 8, colistin non-inhibitory",8 µg/mL
same,MIC of Compound (μg/ml) in the presence of colistin (2 μg/ml),[11]; A. baumannii colistin-resistant strain #1,0.015 µg/mL
same,MIC of Compound (μg/ml) in the presence of colistin (2 μg/ml),[11]; A. baumannii colistin-resistant strain #2,0.03 µg/mL
same,MIC of Compound (μg/ml) in the presence of colistin (2 μg/ml),[11]; A. baumannii colistin-resistant strain #3,<=0.008 μg/ml
same,MIC,"[11]; read-out: MIC Compound alone, A. baumannii colistin-resistant strain #1",≤ 0.03 µg/mL
same,MIC,"[11]; read-out: MIC Compound alone, A. baumannii colistin-resistant strain #2",4 µg/mL
same,MIC,"[11]; read-out: MIC Compound alone, A. baumannii colistin-resistant strain #3",≤ 0.03 µg/mL
same,MIC,[12],> 64 µg/mL
same,MIC of Compound (μg/ml) in the presence of PMBN (128 μg/ml),[13]; P. aeruginosa (MMX3007),0.25 µg/mL
same,MIC of Compound (μg/ml) in the presence of PMBN (128 μg/ml),[13]; P. aeruginosa (MMX3022),0.25 µg/mL
same,MIC of Compound (μg/ml) in the presence of PMBN (128 μg/ml),[13]; P. aeruginosa (MMX3025),0.12 µg/mL
same,MIC of Compound (μg/ml) in the presence of PMBN (128 μg/ml),[13]; P. aeruginosa (NCTC13437),0.25 µg/mL
same,MIC,"[13]; NCTC13437, P. aeruginosa (NCTC13437)",> 64 µg/mL
same,MIC,[13]; P. aeruginosa (MMX3007),> 64 µg/mL
same,MIC,[13]; P. aeruginosa (MMX3022),> 64 µg/mL
same,MIC,[13]; P. aeruginosa (MMX3025),> 64 µg/mL
same,MIC of Compound (μg/ml) in the presence of PMBN (128 μg/ml),[14]; A. baumannii (MMX 4454),0.5 µg/mL
same,MIC of Compound (μg/ml) in the presence of PMBN (128 μg/ml),[14]; A. baumannii (MMX 6331),0.25 µg/mL
same,MIC,[14]; A. baumannii (MMX 4454),2 µg/mL
same,MIC,[14]; A. baumannii (MMX 6331),> 64 µg/mL
same,MIC of Compound (μg/ml) in the presence of PMBN (32 μg/ml),[15],2 µg/mL
same,MIC,[16],> 16 µg/mL
same,MIC of Compound (μg/ml) in the presence of colistin (2 μg/ml),[17]; E. coli colistin-resistant strain #1,2 µg/mL
same,MIC of Compound (μg/ml) in the presence of colistin (2 μg/ml),[17]; E. coli colistin-resistant strain #2,1 µg/mL
same,MIC of Compound (μg/ml) in the presence of colistin (2 μg/ml),[17]; E. coli colistin-resistant strain #3,1 µg/mL
same,MIC of Compound (μg/ml) in the presence of colistin (2 μg/ml),[17]; E. coli colistin-resistant strain #26,1 µg/mL
same,MIC of Compound (μg/ml) in the presence of colistin (2 μg/ml),[17]; E. coli colistin-resistant strain #43,1 µg/mL
same,MIC,"[17]; read-out: MIC Compound alone, E. coli colistin-resistant strain #1",4 µg/mL
same,MIC,"[17]; read-out: MIC Compound alone, E. coli colistin-resistant strain #2",4 µg/mL
same,MIC,"[17]; read-out: MIC Compound alone, E. coli colistin-resistant strain #3",8 µg/mL
same,MIC,"[17]; read-out: MIC Compound alone, E. coli colistin-resistant strain #26",8 µg/mL
same,MIC,"[17]; read-out: MIC Compound alone, E. coli colistin-resistant strain #43",4 µg/mL
same,MIC of Compound (μg/ml) in the presence of PMBN (128 μg/ml),E. cloaceae (ATCC 13047) [18]; Table 6,0.5 µg/mL
same,MIC Compound alone,E. cloaceae (ATCC 13047) [18]; Table 7,>64 µg/mL
same,MIC of Compound (μg/ml) in the presence of colistin (2 μg/ml),"E. cloaceae (ATCC 13047) [18]; Table 7, colistin non-inhibitory",<=0.12 μg/ml
